ChEMBL document CHEMBL5614405 (J Med Chem, 2024)
Calls of active or inactive are those of the source. No cut-off for these calls is given here.

Tests used:
[1] = Toxicity in chicken embryo chorioallantoic membrane assessed as irritation score at 1.55 mM measured after 5 mins by microscopic analysis relative to Latanoprost; type: tissue-based, Gallus gallus; details: in vivo, 1550 µM
Mus musculus [2] = assay: Anti-glaucoma activity in magnetic microbead induced occlusion C57BL/6J mouse model assessed as reduction in intraocular pressure at 441.27 uM,TOP administration on right eye measured after 1 hr by tonometric analysis; type: functional, organism-based
Mus musculus [3] = assay: Anti-glaucoma activity in magnetic microbead induced occlusion C57BL/6J mouse model assessed as increase in retinal ganglion cell population at 441.27 uM,TOP administrated on right eye thrice a day for 21 days by immunofluorescence based confocal microscopic analysis; type: functional, organism-based; details: time 21.0 day
[4] = Toxicity in New Zealand rabbit assessed as appearance of conjunctival congestion by measuring ocular irritation score at 0.028 % TOP administration on left eye measured after 1 day by draize eye irritation test; type: tissue-based, Oryctolagus cuniculus; details: in vivo, topical_or_ocular, 24 h
[5] = Toxicity in New Zealand rabbit assessed as appearance of conjunctival congestion by measuring ocular irritation score at 0.028 % TOP administration on left eye measured after 2 days by draize eye irritation test; type: tissue-based, Oryctolagus cuniculus; details: in vivo, topical_or_ocular, 48 h, time 2 day
[6] = Toxicity in New Zealand rabbit assessed as appearance of conjunctival congestion by measuring ocular irritation score at 0.028 % TOP administration on left eye measured after 3 days by draize eye irritation test; type: tissue-based, Oryctolagus cuniculus; details: in vivo, topical_or_ocular, 72 h, time 3 day
[7] = Toxicity in New Zealand rabbit assessed as appearance of conjunctival congestion by measuring ocular irritation score at 0.028 % TOP administration on left eye measured after 4 days by draize eye irritation test; type: tissue-based, Oryctolagus cuniculus; details: in vivo, topical_or_ocular, 96 h, time 4 day
[8] = Toxicity in New Zealand rabbit assessed as appearance of conjunctival congestion by measuring ocular irritation score at 0.028 % TOP administration on left eye measured after 5 days by draize eye irritation test; type: tissue-based, Oryctolagus cuniculus; details: in vivo, topical_or_ocular, 120 h, time 5 day
[9] = Toxicity in New Zealand rabbit assessed as appearance of conjunctival congestion by measuring ocular irritation score at 0.028 % TOP administration on left eye measured after 6 days by draize eye irritation test; type: tissue-based, Oryctolagus cuniculus; details: in vivo, topical_or_ocular, 144 h, time 6 day
[10] = Toxicity in New Zealand rabbit assessed as appearance of conjunctival congestion by measuring ocular irritation score at 0.028 % TOP administration on left eye measured after 7 days by draize eye irritation test; type: tissue-based, Oryctolagus cuniculus; details: in vivo, topical_or_ocular, 168 h, time 7 day
[11] = Toxicity in New Zealand rabbit assessed as appearance of conjunctival congestion by measuring incidence of ocular irritation at 0.028 % TOP administration on left eye measured for 5 days by draize eye irritation test; type: tissue-based, Oryctolagus cuniculus; details: in vivo, topical_or_ocular, 120 h, time 5 day
[12] = Toxicity in chicken embryo chorioallantoic membrane assessed as irritation score at 1.55 mM measured after 5 mins in presence of methyl 3-(nitrooxy)benzoate by microscopic analysis; type: tissue-based, Gallus gallus; details: in vivo, 1550 µM

Compound	Activity [1]	Activity (Mus musculus [2])	Activity (Mus musculus [3])	Activity [4]	Activity [5]	Activity [6]	Activity [7]	Activity [8]	Activity [9]	Activity [10]	Activity [11]	Activity [12]
O=C(CCC/C=C\C[C@@H]1[C@@H](CC[C@@H](O)CCc2ccccc2)[C@H](O)C[C@@H]1O)OCCCCO[N+](=O)[O-] [LATANOPROSTENE BUNOD]	Toxic											
Cc1ccc(C(=O)OCc2ccc([C@@H](CN)C(=O)Nc3ccc4cnccc4c3)cc2)c(C)c1		Active	Active	3.33	3.67	3	3.67	2.33	1.33	1	100%	Non-Toxic
